Legend:
Assay type in all cases: in vivo
[1] = tested on: Italian ryegrass (Lolium multiflorum); test: (9) Herbicidal effect test, pot, spray at 3.2 to 4.0 leaf stage; conditions: 6th day after spraying
Description: (§1) [formula] • X: growth inhibition rate when treated with α (g/ha) of compound A, • Y: growth inhibition rate when treated with β (g/ha) of compound B, • E: growth inhibition rate expected when treated with α (g/ha) of compound A and β (g/ha) of compound B (expected value).
(§2) Upland soil was put in a 1/1,000,000 hectare pot, and seeds of Italian ryegrass (Lolium multiflorum) were sown. When Italian ryegrass reached 3.2 to 4.0 leaf stage, a water-based suspension containing tiafenacil as the active ingredient, prepared by a conventional method for preparing a water-based suspension, and a wettable powder containing tri-allate as the active ingredient, prepared by a conventional method for preparing a wettable powder, an emulsifiable concentrate containing pethoxamid as the active ingredient (tradename: Successor 600, manufactured by Stähler Suisse SA) or an emulsifiable concentrate containing dimethenamid-P as the active ingredient (tradename: Fieldstar P emulsifiable concentrate, manufactured by BASF) were diluted with water (in an amount corresponding to 200 liter per hectare) containing 0.5 vol % of an agricultural spreader (tradename: Destiny HC, manufactured by Winfield Solutions, LLC.) and sprayed by a small spray gun (model: W-101-132G, manufactured by ANEST IWATA Corporation). On the 6th day after spraying, the state of growth of the Italian ryegrass was visually observed, and the growth inhibition rate (%) was obtained in accordance with the evaluation standards described in the above (1) herbicidal effect test, and the results are shown in Table 9. Further, the expected value of the growth inhibition rate (%) was calculated in accordance with the Colby's formula described in the above (1) herbicidal effect test, and the results are also shown in Table 9.

[2] = tested on: waterhemp (Amaranthus tuberculatus); test: (13) Herbicidal effect test, pot, spray at 5.0 to 8.0 leaf stage; conditions: 4th day after spraying
Description: as §1
Upland soil was put in a 1/1,000,000 hectare pot, and seeds of waterhemp (Amaranthus tuberculatus) were sown. When the waterhemp reached 5.0 to 8.0 leaf stage, a water-based suspension containing tiafenacil as the active ingredient, prepared by a conventional method for preparing a water-based suspension, and a wettable powder containing tri-allate as the active ingredient, prepared by a conventional method for preparing a wettable powder, an emulsifiable concentrate containing pethoxamid as the active ingredient (tradename: Successor 600, manufactured by Stähler Suisse SA) or an emulsifiable concentrate containing dimethenamid-P as the active ingredient (tradename: Fieldstar P emulsifiable concentrate, manufactured by BASF) were diluted with water (in an amount corresponding to 200 liter per hectare) containing 0.5 vol % of an agricultural spreader (tradename: Destiny HC, manufactured by Winfield Solutions, LLC.) and sprayed by a small spray gun (model: W-101-132G, manufactured by ANEST IWATA Corporation). On the 4th day after spraying, the state of growth of the waterhemp was visually observed, and the growth inhibition rate (%) was obtained in accordance with the evaluation standards described in the above (1) herbicidal effect test, and the results are shown in Table 13. Further, the expected value of the growth inhibition rate (%) was calculated in accordance with the Colby's formula described in the above (1) herbicidal effect test, and the results are also shown in Table 13.

[3] = tested on: Italian ryegrass (Lolium multiflorum); test: (7) Herbicidal effect test, pot, spray at 2.8 to 3.0 leaf stage; conditions: 7th day after spraying
Description: as §1
as §2, with “2.8” for “3.2”, “3.0” for “4.0”, “and” for “and a wettable powder containing tri-allate as the active ingredient, prepared by a conventional method for preparing a wettable powder,”, “Stahler” for “Stähler”, “7th” for “6th”, “7.” for “9.”

[4] = tested on: goosegrass (Eleusine indica); test: (11) Herbicidal effect test, pot, spray at 7.0 to 8.3 leaf stage; conditions: 3rd day after spraying
Description: as §1
Upland soil was put in a 1/1,000,000 hectare pot, and seeds of goosegrass (Eleusine indica) were sown. When goosegrass reached 7.0 to 8.3 leaf stage, a water-based suspension containing tiafenacil as the active ingredient, prepared by a conventional method for preparing a water-based suspension, and a wettable powder containing tri-allate as the active ingredient, prepared by a conventional method for preparing a wettable powder, an emulsifiable concentrate containing pethoxamid as the active ingredient (tradename: Successor 600, manufactured by Stähler Suisse SA) or an emulsifiable concentrate containing dimethenamid-P as the active ingredient (tradename: Fieldstar P emulsifiable concentrate, manufactured by BASF) were diluted with water (in an amount corresponding to 200 liter per hectare) containing 0.5 vol % of an agricultural spreader (tradename: Destiny HC, manufactured by Winfield Solutions, LLC.) and sprayed by a small spray gun (model: W-101-132G, manufactured by ANEST IWATA Corporation). On the 3rd day after spraying, the state of growth of the goosegrass was visually observed, and the growth inhibition rate (%) was obtained in accordance with the evaluation standards described in the above (1) herbicidal effect test, and the results are shown in Table 11. Further, the expected value of the growth inhibition rate (%) was calculated in accordance with the Colby's formula described in the above (1) herbicidal effect test, and the results are also shown in Table 11.

## COC[C@H](C)N(C(=O)CCl)c1c(C)csc1C [dimethenamid-P]
[1]; Dose 500 g/ha
  Growth inhibition rate (%) Measured value: 33%
[1]; Dose 625 g/ha
  Growth inhibition rate (%) Measured value: 40%
[2]; Dose 60 g/ha
  Growth inhibition rate (%) Measured value: 0%
[2]; Dose 375 g/ha
  Growth inhibition rate (%) Measured value: 0%
[2]; Dose 750 g/ha
  Growth inhibition rate (%) Measured value: 0%
[3]; Dose 60 g/ha
  Growth inhibition rate (%) Measured value: 0%
[3]; Dose 120 g/ha
  Growth inhibition rate (%) Measured value: 3%
[3]; Dose 240 g/ha
  Growth inhibition rate (%) Measured value: 8%
[3]; Dose 750 g/ha
  Growth inhibition rate (%) Measured value: 12%
[3]; Dose 1500 g/ha
  Growth inhibition rate (%) Measured value: 15%
[4]; Dose 60 g/ha
  Growth inhibition rate (%) Measured value: 0%
[4]; Dose 375 g/ha
  Growth inhibition rate (%) Measured value: 0%
[4]; Dose 750 g/ha
  Growth inhibition rate (%) Measured value: 0%

## CCOCCN(C(=O)CCl)C(=C(C)C)c1ccccc1 [pethoxamid]
[1]; Dose 312.5 g/ha
  Growth inhibition rate (%) Measured value: 5%
[1]; Dose 437.5 g/ha
  Growth inhibition rate (%) Measured value: 3%
[1]; Dose 625 g/ha
  Growth inhibition rate (%) Measured value: 8%
[2]; Dose 93.8 g/ha
  Growth inhibition rate (%) Measured value: 0%
[2]; Dose 375 g/ha
  Growth inhibition rate (%) Measured value: 0%
[2]; Dose 750 g/ha
  Growth inhibition rate (%) Measured value: 0%
[3]; Dose 93.75 g/ha
  Growth inhibition rate (%) Measured value: 0%
[3]; Dose 187.5 g/ha
  Growth inhibition rate (%) Measured value: 0%
[3]; Dose 375 g/ha
  Growth inhibition rate (%) Measured value: 7%
[3]; Dose 750 g/ha
  Growth inhibition rate (%) Measured value: 7%
[3]; Dose 1500 g/ha
  Growth inhibition rate (%) Measured value: 12%
[4]; Dose 93.8 g/ha
  Growth inhibition rate (%) Measured value: 0%
[4]; Dose 375 g/ha
  Growth inhibition rate (%) Measured value: 0%
[4]; Dose 750 g/ha
  Growth inhibition rate (%) Measured value: 0%

## COC(=O)CCNC(=O)C(C)Sc1cc(-n2c(=O)cc(C(F)(F)F)n(C)c2=O)c(F)cc1Cl (stereo not shown) [tiafenacil]
[1]; Dose 6.25 g/ha
  Growth inhibition rate (%) Measured value: 30%
[2]; Dose 6.25 g/ha
  Growth inhibition rate (%) Measured value: 73%
[3]; Dose 6.25 g/ha
  Growth inhibition rate (%) Measured value: 15%
[3]; Dose 12.5 g/ha
  Growth inhibition rate (%) Measured value: 37%
[3]; Dose 25 g/ha
  Growth inhibition rate (%) Measured value: 33%
[4]; Dose 6.25 g/ha
  Growth inhibition rate (%) Measured value: 77%

## CC(C)N(C(=O)SCC(Cl)=C(Cl)Cl)C(C)C [tri-allate]
[1]; Lolium multiflorum, Dose 937.5 g/ha, read-out: Growth inhibition rate (%) Measured value
  inhibition at 937.5 g/ha: 3%
[2]; Amaranthus tuberculatus, Dose 75 g/ha, read-out: Growth inhibition rate (%) Measured value
  inhibition at 75 g/ha: 0%
[2]; Amaranthus tuberculatus, Dose 625 g/ha, read-out: Growth inhibition rate (%) Measured value
  inhibition at 625 g/ha: 0%
[2]; Amaranthus tuberculatus, Dose 1250 g/ha, read-out: Growth inhibition rate (%) Measured value
  inhibition at 1250 g/ha: 0%
[4]; Eleusine indica, Dose 75 g/ha, read-out: Growth inhibition rate (%) Measured value
  inhibition at 75 g/ha: 0%
[4]; Eleusine indica, Dose 625 g/ha, read-out: Growth inhibition rate (%) Measured value
  inhibition at 625 g/ha: 0%
[4]; Eleusine indica, Dose 1250 g/ha, read-out: Growth inhibition rate (%) Measured value
  inhibition at 1250 g/ha: 5%

Reference: patent publication US20250380696A1, “METHOD FOR CONTROLLING UNDESIRED PLANTS AND PROMOTING GROWTH OF USEFUL PLANTS” (ISHIHARA SANGYO KAISHA, LTD., priority 2022, published 2025)
